Our source for the EC50 values is patent US20080045514A1 (Cytovia, Inc., priority 2006, published 2008).

Holding throughout (format): cell-based
The test system of assay [1] is human breast cancer cell line T-47D. Description: Caspase cascade activation (EC50), T-47D. As to conditions: Homo sapiens; T47D cells; caspase cascade activation; read-out: caspase potency (EC50) T47D. On the procedure: (§1) Human breast cancer cell lines T-47D, human hepatocellular carcinoma cell line SNU398, human colon carcinoma cell line HCT116, human cancer cell line H1299, human Burkitt's lymphoma cell line Namalwa, human lymphoma cell line Raji, and human B cell lymphoblastoid cell line Ramos were grown according to media component mixtures designated by American Type Culture Collection+10% FCS (Invitrogen Corporation), in a 5% CO2-95% humidity incubator at 37° C. T-47D and H1299 cells were maintained at a cell density between 50 and 80% confluency at a cell density of 0.1 to 0.6×10^6 cells/mL. Cells were harvested at 600×g and resuspended at 0.65×10^6 cells/mL into appropriate media+10% FCS. An aliquot of 22.5 μL of cells was added to a well of a 384-well microtiter plate containing 2.5 μL of a 10% DMSO in RPMI-1640 media solution containing 0.16 to 100 μM of 3-(2-chlorophenyl)-6-(3,4-methylenedioxyphenyl)-7H-[1,2,4]triazolo[3,4-b][1,3,4]thiadiazine or other test compound (0.016 to 10 μM final). An aliquot of 22.5 μL of cells was added to a well of a 384-well microtiter plate containing 2.5 μL of a 10% DMSO in RPMI-1640 media solution without test compound as the control sample. The samples were mixed by agitation and then incubated at 37° C. for 48 h in a 5% CO2-95% humidity incubator. After incubation, the samples were removed from the incubator and 25 μL of a solution containing 14 μM of N—(Ac-DEVD)-N′-ethoxycarbonyl-R110 (SEQ ID No.:1) fluorogenic substrate (Cytovia, Inc.; WO99/18856), 20% sucrose (Sigma), 20 mM DTT (Sigma), 200 mM NaCl (Sigma), 40 mM Na PIPES buffer pH 7.2 (Sigma), and 500 μg/mL lysolecithin (Calbiochem) was added. The samples were mixed by agitation and incubated at room temperature. Using a fluorescent plate reader (Model SPECTRAfluor Plus, Tecan), an initial reading (T=0) was made approximately 1-2 min after addition of the substrate solution, employing excitation at 485 nm and emission at 530 nm, to determine the background fluorescence of the control sample. After the 3 h incubation, the samples were read for fluorescence as above (T=3 h). Calculation: The Relative Fluorescence Unit values (RFU) were used to calculate the sample readings as follows: RFU(T=3H)−Control RFU(T=0)=Net RFU(T=3h) The activity of caspase cascade activation was determined by the ratio of the net RFU value for 3-(2-chlorophenyl)-6-(3,4-methylenedioxyphenyl)-7H-[1,2,4]triazolo[3,4-b][1,3,4]thiadiazine (Example P) or other test compound to that of control samples. The EC50 (nM) was determined by a sigmoidal dose-response calculation (Prism 3.0, GraphPad Software Inc.).

Assay [2] has as its system human hepatocellular carcinoma cell line SNU398. In words: Caspase cascade activation (EC50), SNU398. The settings on record: Homo sapiens, SNU-398; SNU398 cells; caspase cascade activation; read-out: caspase potency (EC50) SNU398. How it is done: as §1
In assay [3] the test system is human colon carcinoma cell line HCT116. In words: Caspase cascade activation (EC50), HCT116. The settings on record: Homo sapiens, HCT-116; HCT116 cells; caspase cascade activation; read-out: caspase potency (EC50) HCT116. How it is done:
as §1

The test system of assay [4] is human Burkitt's lymphoma cell line Namalwa. In words: Caspase cascade activation (EC50), Namalwa. The settings on record: Homo sapiens, Burkitts lymphoma cell; Namalwa cells; caspase cascade activation; read-out: caspase potency (EC50) Namalwa. How it is done:
as §1

The test system of assay [5] is human lymphoma cell line Raji. Description: Caspase cascade activation (EC50), Raji. The settings on record: Homo sapiens, RAJI cells, read-out: caspase potency (EC50) RAJI. On the procedure:
as §1

Assay [6] has as its system human B cell lymphoblastoid cell line Ramos. In words: Caspase cascade activation (EC50), Ramos. The settings on record: Homo sapiens, RAMOS cells, read-out: caspase potency (EC50) RAMOS. How it is done:
as §1

Structures can show the parent of a compound that is named as a salt.

For `COc1cc(-c2nnc3n2N=C(c2ccc(O)c(O)c2)CS3)cc(OC)c1OC` [Example Z1, 3-(3,4,5-Trimethoxyphenyl)-6-(3,4-dihydroxyphenyl)-7H-[1,2,4]triazolo[3,4-b][1,3,4]thiadiazine], the 50% effective concentration (EC50) – broadly, the concentration that produces a half-maximal response – in assay [1] was 284 nM; in assay [2], 101 nM; in assay [3], 240 nM; in assay [4], 200 nM; in assay [5], 176 nM; in assay [6], 219 nM.

`COc1ccccc1-c1nnc2n1N=C(c1ccc(OCCN(C)C)cc1)CS2` [Example 9, 3-(2-Methoxyphenyl)-6-(4-(2-dimethylaminoethoxy)phenyl)-7H-[1,2,4]triazolo[3,4-b][1,3,4]thiadiazine]: the values for the half-maximal effective concentration (EC50) in assay [4], in assay [5] and in assay [6] were 2560 nM, 3370 nM and 2650 nM, respectively.

With `COc1ccc(-c2nnc3n2N=C(c2ccc(N)cc2)CS3)cc1OC` [Example 29, 6-(4-Aminophenyl)-3-(3,4-dimethoxyphenyl)-7H-[1,2,4]triazolo[3,4-b][1,3,4]thiadiazine], the EC50 in assay [1] was 4720 nM; in assay [2] it was 2540 nM; in assay [3], 5280 nM; in assay [6], 545 nM.

With `Cc1ccc(C2=Nn3c(nnc3-c3ccccc3Cl)SC2)cc1` [Example 11, 3-(2-Chlorophenyl)-6-(4-methylphenyl)-7H-[1,2,4]triazolo[3,4-b][1,3,4]thiadiazine hydrochloride], the half-maximal effective concentration (EC50) in assay [4] was 71 nM; in assay [5], 157 nM; in assay [6], 72 nM.

In the case of `c1ccc(-c2nnc3n2N=C(c2ccc4c(c2)OCO4)CS3)cc1` [Example P1, 3-Phenyl-6-(3,4-methylenedioxyphenyl)-7H-[1,2,4]triazolo[3,4-b][1,3,4]thiadiazine], the EC50 in assay [1] was 669 nM; in assay [2] it was 2640 nM; in assay [3], over 10000 nM; in assay [5], over 1000 nM; in assay [6], 628 nM.

As to `COc1ccc(C2=Nn3c(nnc3-c3cc(Cl)c(OC)c(OC)c3)SC2)cc1` [Example 5, 3-(3-Chloro-4,5-dimethoxyphenyl)-6-(4-methoxyphenyl)-7H-[1,2,4]triazolo[3,4-b][1,3,4]thiadiazine], the half-maximal effective concentration (EC50) turned out to be 71 nM in assay [4], 133 nM in assay [5] and 78 nM in assay [6].

On to `COc1ccc(-c2nnc3n2N=C(c2ccc(NC(C)=O)cc2)CS3)cc1OC` [Example 32, 6-(4-Acetamidophenyl)-3-(3,4-dimethoxyphenyl)-7H-[1,2,4]triazolo[3,4-b][1,3,4]thiadiazine], for which the EC50 in assay [4] is over 10000 nM; in assay [5], over 10000 nM; in assay [6], 4860 nM.

For the molecule `COc1cc(OC)cc(-c2nnc3n2N=C(c2ccc4[nH]c(=O)oc4c2)CS3)c1` [Example 34, 6-(2,3-Dihydro-2-oxobenzo[d]oxazol-6-yl)-3-(3,5-dimethoxyphenyl)-7H-[1,2,4]triazolo[3,4-b][1,3,4]thiadiazine], the concentration giving a half-maximal response (EC50) worked out at 4600 nM in assay [1], 4920 nM in assay [2], 5090 nM in assay [3] and 4930 nM in assay [4].

Take `COc1ccccc1-c1nnc2n1N=C(c1cc(Br)c(N)c(Br)c1)CS2` [Example 78, 6-(4-Amino-3,5-dibromophenyl)-3-(2-methoxyphenyl)-7H-[1,2,4]triazolo[3,4-b][1,3,4]thiadiazine]: the EC50 came to 259 nM in assay [1], 51 nM in assay [2], 124 nM in assay [3] and 73 nM in assay [4].

On to `COc1cc(-c2n[nH]c3nc(=O)c(-c4ccc(C)cc4)nn23)cc(OC)c1OC` [Example 37, 3-(3,4,5-Trimethoxyphenyl)-6-(4-methylphenyl)-1H-[1,2,4]triazolo[4,3-b][1,2,4]triazin-7-one], for which the EC50 in assay [1] is 5830 nM; in assay [2] it was 5040 nM; in assay [3], over 10000 nM; in assay [4] it was over 10000 nM.

`COc1ccccc1C1=Nn2c(nnc2-c2ccccc2OC)SC1` [Example 64, 3-(2-Methoxyphenyl)-6-(2-methoxylphenyl)-7H-[1,2,4]triazolo[3,4-b][1,3,4]thiadiazine]: the EC50 in assay [1], in assay [2], in assay [3] and in assay [4] was over 10000 nM in each case.

For the molecule `COc1ccc(-c2nnc3n2N=C(c2ccc4[nH]c(=O)oc4c2)CS3)cc1OC` [Example 35, 6-(2,3-Dihydro-2-oxobenzo[d]oxazol-6-yl)-3-(3,4-dimethoxyphenyl)-7H-[1,2,4]triazolo[3,4-b][1,3,4]thiadiazine], the EC50 in assay [1], in assay [2], in assay [3] and in assay [4] was over 10000 nM throughout.

Regarding `COc1ccccc1-c1nnc2n1N=C(c1ccc(C)cc1C)CS2` [Example 39, 3-(2-Methoxyphenyl)-6-(2,4-dimethylphenyl)-7H-[1,2,4]triazolo[3,4-b][1,3,4]thiadiazine], the EC50 worked out at 2700 nM in assay [1], 943 nM in assay [2], 2580 nM in assay [3] and 1280 nM in assay [4].

As for `COc1ccc(-c2nnc3n2N=C(c2ccc4c(c2)OCO4)CS3)cc1OC` [Example O1, 3-(3,4-Dimethoxyphenyl)-6-(3,4-methylenedioxyphenyl)-7H-[1,2,4]triazolo[3,4-b][1,3,4]thiadiazine], the EC50 in assay [1] is 542 nM; in assay [2], 501 nM; in assay [3] it was over 10000 nM; in assay [5], 540 nM; in assay [6] it was 514 nM.

On to `COc1ccccc1-c1nnc2n1N=C(c1ccc(Cl)c([N+](=O)[O-])c1)CS2` [Example 55, 6-(4-Chloro-3-nitrophenyl)-3-(2-methoxyphenyl)-7H-[1,2,4]triazolo[3,4-b][1,3,4]thiadiazine], for which the EC50 in assay [1] was 2040 nM; in assay [2], 1870 nM; in assay [3], over 10000 nM; in assay [4], over 10000 nM.

Regarding `COc1ccccc1-c1nnc2n1N=C(c1ccc([N+](=O)[O-])cc1)CS2` [Example X2], the concentration for a half-maximal effect (EC50) in assay [4] was found to be 2580 nM; in assay [5] it was 4860 nM; in assay [6], 2580 nM.

Regarding `Cc1ccc(C2=Nn3c(nnc3-c3ccoc3C)SC2)cc1` [Example 83, 3-(2-Methylfuran-3-yl)-6-(4-methylphenyl)-7H-[1,2,4]triazolo[3,4-b][1,3,4]thiadiazine], the half-maximal effective concentration (EC50) in assay [1] came to 2540 nM; in assay [2] it was 523 nM; in assay [3], 683 nM; in assay [4], 332 nM.

With `CCN(CC)S(=O)(=O)c1ccc(C2=Nn3c(nnc3-c3ccccc3C)SC2)cc1` [Example 52, 6-(4-(N,N-Diethylaminosulfonyl)phenyl)-3-(2-methylphenyl)-7H-[1,2,4]triazolo[3,4-b][1,3,4]thiadiazine], the EC50 in assay [1], in assay [2], in assay [3] and in assay [4] was over 10000 nM each time.

With `COc1ccc(-c2nnc3n2N=C(c2ccc4[nH]c(=O)oc4c2)CS3)c(OC)c1` [Example 33, 6-(2,3-Dihydro-2-oxobenzo[d]oxazol-6-yl)-3-(2,4-dimethoxyphenyl)-7H-[1,2,4]triazolo[3,4-b][1,3,4]thiadiazine], the values for the 50% effective concentration (EC50) in assay [4], in assay [5] and in assay [6] were 2730 nM, 2400 nM and 2680 nM, respectively.
